Common to all, as to assay type: functional, organism-based
Assay [1] is filed under the species Danio rerio. Description: Hepatoprotective activity in isoniazid induced liver injury in transgenic zebrafish T3 (L- FABP:EGFP) model assessed as change in liver size at 20 uM incubated for 72 hrs by fluorescence microscopic analysis.
The species entered for assay [2] is Danio rerio. Description: Hepatoprotective activity in ethanol induced liver injury in transgenic zebrafish T3 (L- FABP:EGFP) model assessed as change in liver size at 20 uM incubated for 72 hrs by fluorescence microscopic analysis.
The species entered for assay [3] is Danio rerio. Description: Hepatoprotective activity in isoniazid induced liver injury in transgenic zebrafish T3 (L- FABP:EGFP) model assessed as change in liver size at 50 uM incubated for 72 hrs by fluorescence microscopic analysis.
Assay [4] is filed under the species Danio rerio. Description: Hepatoprotective activity in ethanol induced liver injury in transgenic zebrafish T3 (L- FABP:EGFP) model assessed as change in liver size at 50 uM incubated for 72 hrs by fluorescence microscopic analysis.

Active and inactive are the calls of the source. No cut-off for these calls is given here.

Take `O=C1O[C@H]2[C@@H](O)[C@H](O)[C@@H](CO)O[C@@H]2c2[nH]c3ccccc3c21`: the outcome in assay [1] and in assay [2] was Active.
Take `C[C@@H]1NC(=O)[C@H](Cc2c([C@H]3O[C@H](CO)[C@@H](O)[C@H](O)[C@@H]3O)[nH]c3ccccc23)NC1=O`: the result in assay [1] and in assay [2] was Active.
Turning to `NCC(=O)c1c([C@H]2O[C@H](CO)[C@@H](O)[C@H](O)[C@@H]2O)[nH]c2ccccc12`, the result in assay [1] and in assay [2] was Active.
As for `C[S+](CC[C@H](N)C(=O)[O-])C[C@H]1O[C@@H](n2cnc3c(N)ncnc32)[C@H](O)[C@@H]1O` (stereo partly drawn), the outcome in assay [3] and in assay [4] was Active.
